The values that follow come from patent US20100022559A1, “BISOXIMES AS FUNGICIDES” (BAYER CROPSCIENCE AG, priority 2006, published 2010).

The first series is described as follows: logP determination by HPLC on a reversed-phase column (C 18), EEC Directive 79/831 Annex V.A8. The conditions noted are these: [a] acidic range, pH 2.3, 0.1% aqueous phosphoric acid and acetonitrile. The class given is physicochemical. The procedure: The stated logP values were determined in accordance with EEC Directive 79/831 Annex V.A8 by HPLC (high performance liquid chromatography) on a reversed-phase column (C 18). Temperature: 43° C.
Regarding `C/C(=N\OCC(C)CON)c1cccc(C)n1` (racemic) [XII-11], the logP is 0.7^[a]. On the same count and under the same terms, as for `C/C(=N\OCC1(CON)CC1)c1cc(C)cc(C)n1` [XII-12], the figure is 0.61^[a].

Still in this series, the particulars now being: [b] LC-MS, acidic range, pH 2.7, 0.1% aqueous formic acid and acetonitrile.
Take `C/C(=N\OCC(C)CON)c1cccc(C)n1` (racemic) [XII-11]: the logP was 0.7^[b].

Turning to `C/C(=N\OCC1(CON)CC1)c1cc(C)cc(C)n1` [XII-12], the logP is 0.61^[b].

The series is the same for the next values; noted with them: [c] LC-MS, neutral range, pH 7.8, 0.001 molar aqueous ammonium bicarbonate solution and acetonitrile.
As for `C/C(=N\OCC(C)CON)c1cccc(C)n1` (racemic) [XII-11], the logP was 2.15^[c]. Turning to `C/C(=N\OCC1(CON)CC1)c1cc(C)cc(C)n1` [XII-12], the logP is 2.42^[c].

The same series, now with this note: method marked [a] in Table 1.
For the molecule `Cc1cccc(C(=NOCC2(CON=C(c3cccc(C)n3)C3CC3)CC(c3ccccc3)=NO2)C2CC2)n1` (stereo not shown) [compound 650], the logP was 3.80^[a].

With `Cc1cccnc1C(=NOCCCON=C(c1ccccc1)c1ncccc1C)c1ccccc1` [compound 657], the logP is 4.17^[a].

The series is the same for the next values; noted with them: method marked [b] in Table 1.
Regarding `CCCC(=NOCC1(CON=C(CCC)c2cccc(C)n2)CC(c2ccc(Cl)cc2)=NO1)c1cccc(C)n1` (stereo not shown) [compound 622], the logP is 6.58^[b]. `C=C(CON=C(Cl)c1cccc(C)n1)CON=C(Cl)c1cccc(C)n1` [compound 696]: the logP is 4.01^[b]. Same read-out and setting: as for `CC(=NOCc1ccccc1CON=C(C)c1ccccn1)c1ccccn1` [Compound 725], the figure is 3.76^[b]; as for `C/C(=N\OCC1(CO/N=C(\C)c2ccc(C)c(C)n2)CC(c2ccccc2Cl)=NO1)c1ccc(C)c(C)n1` [compound 634], 4.3^[b]; as for `CC(=NOCc1ccccc1CON=C(C)c1nc(C)c(C)s1)c1nc(C)c(C)s1` [compound 730], 5.71^[b]. As to `CCC(CON=C(C)c1nc(C)ccc1C)CON=C(C)c1nc(C)ccc1C` (single isomer, unassigned) [compound 751], the logP was 3.19^[b]. Turning to `CC(=NOCCC(C)CCON=C(C)c1ccccn1)c1ccccn1` (stereo not shown) [compound 747], the logP is 4.43^[b].

Take `Cc1cc(C)nc(/C(N)=N/OCc2ccc(CO/N=C(\N)c3cc(C)cc(C)n3)cc2)c1` [compound 733]: the logP is 3,59^[b]. Same read-out and setting: the figure for `CC(=NOCC1(CON=C(C)c2cccc(C)n2)CC(C(C)C)=NO1)c1cccc(C)n1` (stereo not shown) [compound 597] is 3.28^[b]; for `CCC(=NOCC1(CON=C(CC)c2cccc(C)n2)CC(C(C)(C)C)=NO1)c1cccc(C)n1` (stereo not shown) [compound 610] it is 5.21^[b].

The same series, now with this note: method marked [c] in Table 1.
For `CCC(CON=C(C)c1nc(C)ccc1C)CON=C(C)c1nc(C)ccc1C` (single isomer, unassigned) [compound 751], the logP is 5.54^[c].

Still in this series, the particulars now being: method marker [a] (footnote not shown); isomer A / isomer B / isomer mixture as noted in the cell.
`CC(=NOCC(C)CON=C(C)c1cccc(Cc2ccccc2)n1)c1cccc(Cc2ccccc2)n1` (stereo not shown) [Compound 173]: the logP was 7.36^[a]. On the same count and under the same terms, the figure for `CCCC(=NOCCON=C(CCC)c1cccc(C)n1)c1cccc(C)n1` [compound 226] is 5.18^[a]. With `CC(=NOCCCON=C(C)c1ncccc1C)c1ncccc1C` (single isomer, unassigned) [compound 84], the logP is 2.51^[a] (isomer B).

On to `Cc1cccnc1C(Cc1ccccc1)=NOCCCON=C(Cc1ccccc1)c1ncccc1C` (single isomer, unassigned) [Compound 97], for which the logP was 4.89^[a] (isomer A). The same measure, in the same setting: the figure for `CC(=NOCC(C)CON=C(C)c1ccc(C)nc1)c1ccc(C)nc1` (mixture of isomers) [compound 233] is 1.50^[a]; for `CC(=NOCC(O)(CON=C(C)c1cccc(C)n1)CON=C(C)c1cccc(C)n1)c1cccc(C)n1` (stereo not shown) [compound 221] it is 2.65^[a); for `CC(=NOCCCON=C(C)c1cc(-c2ccccc2)ccn1)c1cc(-c2ccccc2)ccn1` [compound 132] it is 5.74^[a]. Take `C=CCCC(=NOCCCON=C(CCC=C)c1ncccc1C)c1ncccc1C` [compound 129]: the logP is 4.59^[a]. On the same count and under the same terms, the figure for `CC(=NOCCCON=C(C)c1ccc(C)cn1)c1ccc(C)cn1` [Compound 81] is 2.90^[a]. The same measure, in the same setting: as for `CC(=NOCCCON=C(C)c1ccnc(C)n1)c1ccnc(C)n1` [compound 161], the figure is 3.06^[a].

The series is the same for the next values; noted with them: method marker [b]; isomer A / isomer B / isomer mixture as noted in the cell.
For `C=C(CON=C(C)c1cccc(C)n1)CON=C(CC)c1ncccc1C` (single isomer, unassigned) [compound 142], the logP was 3.84^[b] (isomer )B. Take `CC(=NOCCCON=C(C)c1ccncc1)c1ccncc1` [compound 29]: the logP was 1.23^b].

On to `Cc1nc(/C(N)=N/OCCCCO/N=C(\N)c2nc(C)c3c(n2)CCCC3)nc2c1CCCC2` [compound 36], for which the logP was 2.58^[b]. Consider `C=C(CON=C(C)c1cccc(CCC)n1)CON=C(C)c1cccc(CCC)n1` [Compound 62], for which the logP was 6.89^[b].

On to `C=C(CON=C(C)c1ccc(C)nc1)CON=C(C)c1cccc(C)n1` (single isomer, unassigned) [compound 200], for which the logP is 1.92^[b] (isomer A).

Take `C=C(CON=C(C)c1ccc(Cl)nc1)CON=C(C)c1cccc(C)n1` [compound 201]: the logP is 3.94^[b]. The same measure, in the same setting: as for `CC(=NOCCCON=C(C)c1ncc(Cl)cc1Cl)c1ncc(Cl)cc1Cl` [compound 56], the figure is 5.78^[b]; as for `Cc1nc(/C(N)=N/OCO/N=C(\N)c2nc(C)c(Cl)c(C)n2)nc(C)c1Cl` [compound 41], 2.36^[b]; as for `COc1cccc(C(C)=NOCC(=O)CON=C(C)c2cccc(OC)n2)n1` [compound 247], 4.61^[b]. On to `C=C(CO/N=C(\N)c1nc(C)cc(C)n1)CO/N=C(\N)c1nc(C)cc(C)n1` [compound 8], for which the logP was 1.80^[b].

Consider `Cc1nc(C(N)=NOCC(C)CON=C(N)c2csc(C)n2)cs1` (stereo not shown) [compound 83], for which the logP was 3.54^[b]. Same read-out and setting: as for `C=C(CON=C(C)c1cccc(C)n1)CON=C(C)c1ccc2ccccc2n1` [Compound 202], the figure is 5.25^[b].

On to `CC(=NOC(C)CC(C)ON=C(C)c1cccc(C)n1)c1cccc(C)n1` (stereo not shown) [Compound 248], for which the logP is 4.10^[b].

Still in this series, the particulars now being: reversed-phase HPLC column (C 18); HCO2H; HPLC reversed-phase column (C 18), 43° C.; read-out: logP (HCO2H).
With `C/C(=N\OCC(CO/N=C(\C)c1cccc(C)n1)=NO)c1cccc(C)n1` [(2E,9E)-2,10-bis(6-methylpyridin-2-yl)-4,8-dioxa-3,9-diazaundeca-2,9-dien-6-one oxime], the chromatographic logP is 1.91.

Still in this series, the particulars now being: value marked [a].
Regarding `C=C(CON=C(N)c1ccc(C)c(C)n1)CON=C(Cl)c1cccc(C)n1` [compound 831], the logP was 4.06^[a]. Consider `CC(=NOCC1(CON=C(C)c2cc(Cl)cc(C)n2)CC1)c1cc(Cl)cc(C)n1` [compound 805], for which the logP was 7.02^[a).

On to `CC(=NOCC(C)(C)CON=C(C)c1cccc(Cc2ccccc2)n1)c1cccc(C)n1` [Compound 364], for which the logP was 6.47^[a]. Same read-out and setting: as for `CC(=NOCC(C)CON=C(C)c1cccc(C)n1)c1ccc2c(c1)CC(C)O2` (stereo not shown) [compound 494], the figure is 5.27^[a]. Take `CC(=NOC[Si](C)(CON=C(C)c1ccc(C)c(C)n1)C(C)C)c1ccc(C)c(C)n1` [Compound 837]: the logP is 6.76^[a]. On the same count and under the same terms, as for `CCCC(=NOCCCON=C(CCC)c1ccc(C)c(C)n1)c1ccc(C)c(C)n1` (mixture of isomers) [Compound 260], the figure is 5.22^[a]; as for `C=C(CON=C(C)c1cccc(C)n1)CON=C(C#N)c1ccc(C)c(C)n1` [Compound 821], 3.74^[a].

The same series, now with this note: value marked [b].
As for `CC(=NOCC1(CON=C(C)c2ccc(C)c(C)n2)CCCCC1)c1ccc(C)c(C)n1` [Compound 320], the logP is 5.34^[b]. Still for that read-out and setting: as for `C=C(CON=C(C)c1cccc(C)n1)CON=C(C)c1ccnc(C)n1` [compound 360], the figure is 3.24^[b]; as for `C=C(CON=C(CC)c1cccc(CC)n1)CON=C(CC)c1cccc(CC)n1` [Compound 265], 7.08^[b]. As for `C=C(CON=C(C)c1ccc(OC)c(OC)c1)CON=C(C)c1cccc(C)n1` [compound 403], the logP was 3.75^[b]. The same measure, in the same setting: as for `CC(=NOCCCCCCON=C(C)c1ccnc(C)n1)c1cccc(C)n1` [compound 348], the figure is 4.51^[b]; as for `CC(=NOCC(C)(C)CON=C(C)c1cccc(C)n1)c1cccnc1` [compound 418], 2.80^[b]; as for `CC(=NOCCCCON=C(C)c1cc2ccccc2o1)c1cccc(C)n1` [compound 381], 4.74^[b]. Turning to `C=C(CON=C(C)c1ccccc1)CON=C(C)c1cccc(C)n1` [compound 408], the logP was 4.51^[b].

On to `CCC(=NOCC(C)(C)CON=C(C)c1cccc(C)n1)c1cccc(C)n1` [Compound 372], for which the logP was 5.33^[b].

Turning to `CC(=NOCCCCON=C(C)c1ncccc1C)c1cccc(C)n1` [compound 451], the logP is 3.02^[b]. The same measure, in the same setting: as for `C=C(CON=C(C)c1ccccn1)CON=C(C)c1cccc(C)n1` (single isomer, unassigned) [compound 400], the figure is 3.15^[b] (isomer B); as for `C=C(CON=C(C#CC)c1cccc(C)n1)CON=C(C#CC)c1cccc(C)n1` [compound 803], 3.07^[b]. With `CC(=NOCC(C)(C)CON=C(c1ncccc1C)C(C)C)c1cccc(C)n1` [compound 368], the logP was 4.56^[b].

Regarding `CC(=NOCC(C)CON=C(C)c1cccc(C)n1)c1ccncc1` (stereo not shown) [compound 493], the logP is 2.04^[b]. Same read-out and setting: as for `COCc1nc(C(N)=NOC/C=C/CON=C(N)c2nc(COC)c(C)c(COC)n2)nc(COC)c1C` (single isomer, unassigned) [compound 769], the figure is 1.75^[b] (isomer B). In the case of `CC(=NOC[Si](C)(CON=C(C)c1ccc(C)c(C)n1)C(C)C)c1ccc(C)c(C)n1` [Compound 837], the logP was 6.76^[b].

With `C=C(CON=C(C)c1cccc(C)n1)CON=C(C)c1cccc(C(C)C)n1` [compound 479], the logP is 5.78^[b]. Same read-out and setting: the figure for `CC(=NOCCCCCCON=C(C)c1cnnc(C)n1)c1cccc(C)n1` [compound 344] is 4.15^[b].

Still in this series, the particulars now being: value marked [c].
Consider `CC(=NOCC1(CON=C(C)c2ccc(C)c(C)n2)CCCCC1)c1ccc(C)c(C)n1` [Compound 320], for which the logP was 7.36^[c]. Same read-out and setting: the figure for `CC(=NOC[Si](C)(CON=C(C)c1ccc(C)c(C)n1)C(C)C)c1ccc(C)c(C)n1` [Compound 837] is 7.36^[c].
